According to ChEMBL document CHEMBL1125230, “Analysis of the in vitro antitumor activity of novel purine-6-sulfenamide, -sulfinamide, and -sulfonamide nucleosides and certain related compounds using a computer-aided receptor modeling procedure” (1991):

What follows are compounds tested on L1210 (assay: In vitro growth inhibition of L1210 tumor cells).
Type: functional, Mus musculus

**Q.** For `Nc1nc([S+](N)[O-])c2ncn([C@@H]3C[C@@H](O)[C@H](CO)O3)c2n1` (stereo in doubt; 9), which “Log 1/ID50” value is on record?
**A.** The value was 5.52.

**Q.** How did the “Log 1/ID50” value turn out when `C[C@H]1OC(n2cnc3c(SN)nc(N)nc32)[C@H](O)[C@@H]1O` (stereo partly specified) was run?
**A.** Its value is 6.

**Q.** `NS(=O)(=O)c1ncnc2c1ncn2[C@H]1C[C@H](O)[C@@H](CO)O1` was tested. Which “Log 1/ID50” value did it give?
**A.** Its value is 4.56.

**Q.** For `Nc1nc([S+](N)[O-])c2ncn([C@@H]3C[C@@H](O)[C@H](CO)O3)c2n1` (mixture of isomers), which “Log 1/ID50” value is on record?
**A.** The value was 4.45.

**Q.** `NS(=O)(=O)c1ncnc2c1ncn2[C@@H]1O[C@H](CO)[C@@H](O)[C@@H]1O` was tested. Which “Log 1/ID50” value did it give?
**A.** Its value is 4.

**Q.** Which “Log 1/ID50” value does the source give for `Nc1nc(S(N)(=O)=O)c2ncn(C3O[C@H](CO)[C@@H](O)[C@H]3O)c2n1` (stereo partly specified) here?
**A.** Its value is 5.7.

**Q.** Which “Log 1/ID50” value does the source give for `N[S+]([O-])c1ncnc2c1ncn2[C@@H]1C[C@@H](O)[C@H](CO)O1` (mixture of isomers) here?
**A.** Its value is 4.6.

**Q.** How did the “Log 1/ID50” value turn out when `NC(=O)c1ncnc2c1cnn2C1O[C@H](CO)[C@@H](O)[C@H]1O` (stereo partly specified) was run?
**A.** The value was 4.38.

**Q.** `N=C1N=C(S)C2N=CN([C@H]3C[C@H](O)[C@@H](CO)O3)C2=N1` (stereo partly specified) was tested. Which “Log 1/ID50” value did it give?
**A.** Its value is 7.3.

**Q.** How did the “Log 1/ID50” value turn out when `NSc1nc(N)nc2c1ncn2[C@H]1C[C@H](O)[C@@H](CO)O1` was run?
**A.** The value was 6.06.

**Q.** How did the “Log 1/ID50” value turn out when `C[C@H]1OC(n2cnc3c(S(N)(=O)=O)nc(N)nc32)[C@H](O)[C@@H]1O` (stereo partly specified) was run?
**A.** Its value is 5.42.

**Q.** `NS(=O)(=O)c1ncnc2c1ncn2[C@@H]1O[C@H](CO)[C@@H](O)[C@H]1O` was tested. Which “Log 1/ID50” value did it give?
**A.** The value was 4.92.

**Q.** For `NSc1ncnc2c1ncn2[C@H]1C[C@H](O)[C@@H](CO)O1`, which “Log 1/ID50” value is on record?
**A.** The value was 6.66.

**Q.** With `Nc1nc([S+](N)[O-])c2ncn(C3O[C@H](CO)[C@@H](O)[C@H]3O)c2n1` (mixture of isomers) as the compound, how does the “Log 1/ID50” value read?
**A.** Its value is 6.

**Q.** How did the “Log 1/ID50” value turn out when `NSc1ncnc2c1cnn2C1O[C@H](CO)[C@@H](O)[C@H]1O` (stereo partly specified) was run?
**A.** Its value is 4.51.

**Q.** For `Nc1cc2c(ncn2C2O[C@H](CO)[C@@H](O)[C@H]2O)c([S+](N)[O-])n1` (mixture of isomers), which “Log 1/ID50” value is on record?
**A.** The value was 3.

**Q.** `N[S+]([O-])c1ncnc2c1ncn2C1O[C@H](CO)[C@@H](O)[C@H]1O` (mixture of isomers) was tested. Which “Log 1/ID50” value did it give?
**A.** The value was 4.

**Q.** `NSc1nc(N)nc2c1ncn2C1O[C@H](CO)[C@@H](O)[C@H]1O` (stereo partly specified) was tested. Which “Log 1/ID50” value did it give?
**A.** Its value is 6.52.

**Q.** Which “Log 1/ID50” value does the source give for `NSc1ncnc2c1ncn2C1O[C@H](CO)[C@@H](O)[C@H]1O` (stereo partly specified) here?
**A.** The value was 5.22.

**Q.** Which “Log 1/ID50” value does the source give for `C[C@H]1OC(n2cnc3c([S+](N)[O-])nc(N)nc32)[C@H](O)[C@@H]1O` (mixture of isomers) here?
**A.** Its value is 5.55.

**Q.** `NSc1ncnc2c([C@@H]3O[C@H](CO)[C@@H](O)[C@H]3O)n[nH]c12` was tested. Which “Log 1/ID50” value did it give?
**A.** Its value is 4.69.
